Results on one compound are retold here after PMC9026853, “Design, Physicochemical Characterization, and In Vitro Permeation of Innovative Resatorvid Topical Formulations for Targeted Skin Drug Delivery” (Pharmaceutics, 2022).

Several values for one entry are separate records, joined by “and”; a condition that tells them apart may be missing. Identical values can stand only once.

Series [1] is described as follows: In vitro oil-water partitioning coefficient (Log-P), 1-octanol/PBS, HPLC. It is filed as physicochemical. The settings on record: for Experimental (Log-P): n = 3, mean ± SD; for partition coefficient (Log-P), range over pH: pH 6.5, 7.1, 8.8. Here is the method:
The HPLC consisted of a Shimadzu LC-2010A HT liquid chromatograph (Torrance, CA, USA), coupled with a UV–Vis dual wavelength detector. The analysis was performed by a reverse-phase HPLC assay, using a Luna C18, 5 μm column (250 mm × 2 mm) (Phenomenex, Torrance, CA, USA), maintained at 25 °C ± 2 °C. Ultraviolet detection was done at 254 nm. The mobile phase conditions were 50:50 (v/v) acetonitrile: trifluoroacetic acid (0.1% v/v) at a flow rate of 0.3 mL/min. The injection volume was 10 µL. The retention time for resatorvid was ~15.9 min. Quantification was determined using peak area and calculated from a five-point standard curve (0.0625 mg/mL to 1 mg/mL, R^2 = 0.9971). Standards were prepared by volumetric dilution in acetonitrile and stored at 4 °C, protected from light. The modifications made to the method were using a column length of 250 mm × 2 mm instead of 150 mm × 2.1 mm and a mobile phase of 50:50 (v/v) acetonitrile: trifluoroacetic acid (0.1% v/v) instead of 40:60 (v/v) acetonitrile: trifluoroacetic acid (0.1% v/v) as previously reported.
Resatorvid raw powder was weighed out (0.003 g) and placed in 2 dram amber-colored glass vials containing equal volumes (1.5 mL) of 1-octanol and PBS (1×, pH = 7.4) to make a 1 mg/mL solution. Various solutions were made, and the pH was adjusted and maintained at pH values of 6.5, 7.1, 8.8. Adjustments to the pH were made using 0.1 M hydrochloric acid (HCl) solution and 0.1 M sodium hydroxide (NaOH) solution. […] The vials were rotated using a Barnstead/Thermolyne Labquake shaker (Dubuque, IA, USA) for 24 h and left undisturbed in a vertical position for an additional 24 h for phase separation between the aqueous and non-aqueous layers. Then, 200 μL of the organic and aqueous layers were sampled very carefully without disturbing the separation of phases and analyzed via the HPLC method previously mentioned.

Series [2] is described as follows: In vitro cell dose-response (resazurin viability) in 2D culture, HaCaT. The series is classed as cell-based, human. As to conditions: human, HaCaT cells (transformed keratinocytes), 2D culture; concentrations at 0.01 µM and 0.1 µM. Here is the method:
(§1) The effects of raw resatorvid on the viability of human representative keratinocyte cell lines exposed to concentrations at 1000 μM, 100 μM, 10 μM, 1 µM, 0.1 µM, and 0.01 µM were tested. HaCaT cells (a human transformed keratinocyte from a histologically normal skin cell line) and primary NHEKs (normal human epidermal keratinocyte cells) were used as models of the human epidermis, which generates keratinocytes in the stratum basale and then differentiates into the final barrier layer of the skin, the stratum corneum. The HaCaT cells were grown in Dulbecco’s modified Eagle’s medium (DMEM), Optimized 1×, 10% (v/v) FBS, and Pen-Strep (100 units/mL penicillin, 100 µg/mL) in a humidified incubator at 37 °C and 5% CO2. The NHEK cells were grown in an NHEK growth medium provided by MatTek (Ashland, MA, USA) in a humidified incubator at 37 °C and 5% CO2.
(§2) After confluence, the HaCaT and NHEK cells were seeded in a black 96-well plate at a concentration of 5000 cells in 100 µL of media/well, then incubated for 48 h to allow attachment to the surface of the plates. After 48 h, the cells were then exposed to the different concentrations of resatorvid previously mentioned. The drug solutions were prepared by dissolving raw resatorvid powder in 5% (v/v) DMSO and adequate growth medium to make a solution at 1×. A volume of 100 µL of drug solution was added to each well. […] The fluorescence intensity of resorufin was detected at 544 nm (excitation) and 590 nm (emission) using the Molecular Devices® SpectraMax® M3 Multi-Mode Microplate Reader (Sunnyvale, CA, USA). The relative viability of the cells was calculated as followed by Equation (1):(1) Relative Viability %=Sample flourescence intensity/Control flourescece intensity×100%
(In general: Resazurin is reduced to fluorescent resorufin, in cell work by metabolically active cells.)

Series [3] deals with HaCaT cells. The description is as above. The series is classed as cell-based, human. As to conditions: for toxicity to HaCaT cells: 0.01-1000 µM raw resatorvid, 72 h exposure as printed in results. Here is the method: as §1, §2
Series [4] is described as follows: In vitro cell dose-response (resazurin viability) in 2D culture, NHEK. It is filed as cell-based, human. As to conditions: human; all concentrations (0.01-1000 µM); read-out: viability of NHEK cells. The procedure:
as §1, §2

In series [5] the test system is primary normal human epidermal keratinocytes (NHEKs). Described as above. The series is classed as cell-based. The settings on record: 0.01-1000 µM raw resatorvid, 72 h exposure as printed in results. Here is the method: as §1, §2
The nature of series [6]: Residual water content by Karl Fisher coulometric titration. The settings on record: KFT, n = 4, mean ± SD, Table S2. The series is classed as physicochemical. Here is the method:
The residual water content of raw resatorvid powder was quantified by coulometric KFT using a TitroLine 750 trace titrator (SI Analytics, Weilheim, Germany). In brief, 1 mL of 0.1% (w/v) of resatorvid in anhydrous methanol was added to the titration cell containing Hydranal® Coulomat AD reagent.

A short description of series [7]: Particle sizing by SEM image analysis. It is filed as physicochemical. The source says: The particle size and surface morphology of raw resatorvid were obtained using scanning electron microscopy (SEM) (FEI, Brno, Czech Republic). The samples were sprinkled onto the double-sided adhesive carbon tabs (Ted Patella, Inc. Redding, CA, USA), which were adhered to aluminum stubs and coated with a 7 nm thin film of gold palladium alloy, using an Anatech Hummer 6.2 (Union City, CA, USA) sputtering system at 20 µA for 90 s under an argon plasma. The electron beam with an accelerating voltage of 30 kV was used at a working distance of approximately 9–12 mm. The SEM images were collected at various magnifications.
Using SEM micrographs, the mean size, standard deviation, and size range of the particles were determined digitally using SigmaScan^TM Pro 5.0.0 (Systat, Inc., San Jose, CA, USA). Representative micrographs of raw resatorvid at 400–5000× magnification were analyzed by measuring the diameter of at least 60 particles per sampling.

For series [8] the following is noted: method and reference not given; cited from earlier work.
On the set-up of series [9]: method as in PMID 29437671. The settings on record: standardized Franz cell system; cited from earlier work.
Series [10] has as its system SKH-1 mice. Set-up: method as in PMID 29437671. As to conditions: topical, cited from earlier work.

Broadly, the viability is a read-out of living cells in per cent, often relative to untreated cells. As to `CCOC(=O)C1=CCCC[C@H]1S(=O)(=O)Nc1ccc(F)cc1Cl` [resatorvid, ethyl (6R)-6-[N-(2-Chloro-4-fluorophenyl)sulfamoyl]cyclohex-1-ene-1-carboxylate], the “Experimental (Log-P)” value in series [1] (At 35 °C, pH = 6.5, 1-octanol/PBS) is 1.65 ± 0.029; in series [1] (At 35 °C, pH = 7.1) it was 1.68 and 1.68 ± 0.013; in series [1] (At 35 °C, pH = 8.8) it was 0.94 ± 0.023; in [1] (At Room temperature/ambient temperature, pH = 6.5), 1.58 ± 0.019; in series [1] (At Room temperature/ambient temperature, pH = 7.1) it was 1.54 ± 0.149; in [1] (At Room temperature/ambient temperature, pH = 8.8), 0.88 ± 0.060. Besides, the “partition coefficient (Log-P), range over pH” value is reported as 0.94–1.68 in series [1] (at 35 °C) and 0.88–1.58 in series [1] (at room/ambient temperature). The viability at 48 h in series [2] and in series [4] was about 100% throughout. Besides, the “toxicity to HaCaT cells” value in [3] is “negligible toxicity”; in [3] (listed as Resatorvid), “did not show any significant toxicity”. The “effect on HaCaT cells at higher concentrations” value in series [3] (concentration increased from 1 µM to 1000 µM) is recorded as “cell proliferation was observed”. Further, the “toxicity to NHEK cells” value in series [5] was “negligible toxicity”; in series [5] (listed as Resatorvid), “did not show any significant toxicity”. In series [6], the “Residual Water content” value is 0.0173 ± 0.0156 %w/w. The “average geometric (linear) size of the raw particles” value in series [7] stood at 5.84 µm. The “experimentally determined pKa reported” value in series [8] is listed as 8.0–8.1. Further, the amount of resatorvid in the lower epidermis (tape strips 4–12), average over time course in series [9] was 5 µg/cm^2. Also, in [9], the “time remaining in the skin” value was “at least 8 hr”. Also, the “modulation of UV-induced biomarkers” value in [10] (acetone solution of TAK-242 (13 mM), SKH-1 mice) is “successfully modulated UV-induced biomarkers”. The “UV-induced AP-1 activation” value in [10] (mice) was “reduces UV-induced AP-1 activation”. Moreover, in [10] (mice), the photocarcinogenesis entry is on record as “inhibits photocarcinogenesis”.
